# Reference: PMC7108851 (Journal of Virology, 2020)
# Values joined by “and” are separate entries in the source; they are usually repeats but may differ in a detail not shown here. Equal values may be shown once. Read-outs that look alike come from different tables or passages of the source.
# How the values were obtained:
# [1] = format: in vivo, female BLT mice; conditions: for genital tract tissue concentrations relative to what has been observed in women: single dose TFV 150 mg/kg, higher than in women (54)
# Experimental: For RPV LA, 14 mice were injected intramuscularly in the flank with 3 mg RPV LA, for a dose of approximately 150 mg/kg. Two mice were euthanized at 1, 3, 6, 12, 24, 48, and 168 h postinjection. For TFV/FTC, an additional 12 mice were injected intraperitoneally with 150 mg/kg TFV and 100 mg/kg FTC. Two mice were euthanized at 1, 3, 6, 12, 24, and 48 h postinjection. Blood was drawn at each time point until euthanasia, and plasma was separated. At necropsy, female genital tract and colon/rectum were collected, weighed, and immediately flash-frozen dry.
# RPV, TFV, and FTC were extracted from mouse plasma with isotopically labeled internal standards (RPV-d6; TFV-^13C5; and FTC-^13C, ^15N2, respectively) using protein precipitation. TFV and FTC were separated on a Waters Atlantis T3 (2.1 by 50 mm, 3 μm) high-performance liquid chromatography (HPLC) column and RPV on an Xterra MS C18 (2.1 by 50 mm, 3.5 μm) HPLC column. The calibrated ranges were 1 to 4,000 ng/ml (TFV and FTC) or 1 to 10,000 ng/ml (RPV). Calibration standards and quality control (QC) samples were prepared in blank plasma with an acceptance criteria of ±20%.
# Frozen tissue biopsy specimens were homogenized in 1 ml of cold 70:30 acetonitrile–1 mM ammonium phosphate (pH 7.4). RPV, TFV, FTC, TFVdp, and FTCtp were extracted from tissue homogenate with the following isotopically labeled internal standards: RPV-d6; TFV-^13C5; FTC-^13C, ^15N2; and TFVdp-^13C5 (for both TFVdp and FTCtp). For quantification, analytes and internal standards were separated on a Waters Atlantis T-3 C18 HPLC column (TFV and FTC), a ThermoBioBasic AX HPLC column (TFVdp and FTCtp), or an Xterra MS C18 (2.1 by 50 mm, 3.5 μm) HPLC column (RPV). The calibrated ranges were 0.300 to 300 ng/ml (TFV, FTC, TFVdp, and FTCtp) and 1 to 200 ng/ml (RPV). Resulting concentrations were normalized to tissue weight assuming a tissue density of 1 g/ml ([86]) and reported as nanograms or femtomole per gram. Calibration standards and QC samples were prepared in blank tissue homogenate with an acceptance criteria of ±20%.
# [2] = system: Y181I/V; set-up: method as in PMID 19933797; conditions: cited from earlier work
# [3] = system: Y181C; set-up: method as in PMID 19933797; conditions: cited from earlier work
# [4] = even at a high dose; cited from earlier work
# [5] = cited from earlier work
# [6] = system: WT HIV-1NL4-BAL; experiment: Drug susceptibility assay in TZM-bl cells; format: cell-based; conditions: Human immunodeficiency virus 1, BAL
# Experimental: (§1) WT, Y181C, and Y181V HIV-1 stocks were phenotyped for resistance to RPV or RPV LA as previously described ([68]). Briefly, TZM-bl cells ([84]) were seeded at 5 × 10^3 cells in 96-well cell culture-treated, white-walled plates (PerkinElmer) in phenol red-free Dulbecco’s modified Eagle’s medium (DMEM; Life Technologies) supplemented with 10% fetal bovine serum (FBS; Atlanta Biologicals) and 100 U/ml penicillin, 100 μg/ml streptomycin, and 0.292 mg/ml L-glutamine (PSG; Life Technologies). The following day, virus was added at a multiplicity of infection (MOI) of 0.05 in the presence or absence of RPV dilutions in triplicate. Plates were incubated at 37°C for 48 h, and luciferase was measured using Britelite Plus reagent (PerkinElmer) on a Luminoskan Ascent microplate luminometer (Thermo Scientiﬁc). Relative light units (RLU) were converted to percent infection by dividing the RLU of each drug dilution by the RLU of the 100% infection control in the absence of drug. Wells containing cells with no virus and no drug were used to normalize for background luciferase output. The EC50 was calculated by log transforming drug concentrations and using a four-parameter variable-slope nonlinear regression for curve-ﬁtting analysis using PRISM 6 (GraphPad).
# [7] = system: Y181C HIV-1NL4-BAL; experiment: Drug susceptibility assay in TZM-bl cells; format: cell-based; conditions: Fig. 1A
# Experimental: as §1
# [8] = system: Y181V HIV-1CH185; experiment: Drug susceptibility assay in TZM-bl cells; format: cell-based; conditions: Fig. 9B
# Experimental: as §1
# [9] = system: Y181V HIV-1NL4-BAL; experiment: Drug susceptibility assay in TZM-bl cells; format: cell-based
# Experimental: as §1
# [10] = system: WT HIV-1CH185; experiment: Drug susceptibility assay in TZM-bl cells; format: cell-based; conditions: Human immunodeficiency virus 1, Fig. 9B
# Experimental: as §1
# [11] = system: E138K; experiment: RPV resistance of RT mutant (data not shown); format: cell-based, HIV-1
# [12] = system: HIV-1; conditions: cited from earlier work
# [13] = system: simian immunodeficiency virus (SIV); conditions: cited from earlier work
# [14] = system: Y181V; set-up: method as in earlier work; conditions: cited from earlier work
# [15] = system: Y181I HIV-1NL4-BAL; experiment: Drug susceptibility assay in TZM-bl cells; format: cell-based; conditions: Fig. 1A
smiles,measurement,setting,value
"Nc1nc(=O)n([C@@H]2CS[C@H](COP(=O)(O)OP(=O)(O)OP(=O)(O)O)O2)cc1F [FTCtp, FTC triphosphate]",tissue FTC triphosphate (FTCtp) concentrations,"[1]; female genital tract, 12 h, 24 h, and 48 h postdose, single dose PK study",undetectable
"CC(Cn1cnc2c(N)ncnc21)OCP(=O)(O)OP(=O)(O)OP(=O)(O)O (stereo in doubt) [TFVdp, TFV diphosphate]",genital tract tissue concentrations relative to what has been observed in women,[1],approximately 10 fold
"C[C@H](Cn1cnc2c(N)ncnc21)OCP(=O)(O)O [TFV, tenofovir]",genital tract tissue concentrations relative to what has been observed in women,[1],approximately 10 fold
Cc1ccnc2c1NC(=O)c1cccnc1N2C1CC1 [nevirapine],resistance conferred by Y181I/V,[2],> 60 fold
same,resistance conferred by Y181C,[3],> 40 fold
"Cc1cc(/C=C/C#N)cc(C)c1Nc1ccnc(Nc2ccc(C#N)cc2)n1 [RPV, rilpivirine]",metabolism in macaques,[4],rapidly metabolized
same,protein binding,[5],highly protein bound
same,EC50,"[6]; Fig. 1A, read-out: 50% effective concentration (EC50)",0.54 nM and 0.0002 µg/mL
same,EC50,"[6]; Fig. 9B, read-out: average EC50",0.34 ± 0.07 nM
same,EC50,"[6]; RPV LA compared with soluble RPV, Fig. 2, read-out: EC50",0.6 nM and 0.00022 µg/mL
same,fold increase in EC50 (RPV resistance) vs WT HIV-1NL4-BAL,[7],3 fold
same,EC50,"[8]; Human immunodeficiency virus 1, TZM-bl cells",12 ± 1.5 nM
same,fold change from the level for WT HIV-1NL4-BAL,[8]; Y181V HIV-1CH185,36 fold
same,EC50,"[9]; Human immunodeficiency virus 1, BAL, TZM-bl cells, Fig. 9B",7.3 ± 1.3 nM
same,fold change from the level for WT HIV-1NL4-BAL,"[9]; Y181V HIV-1NL4-BAL, Fig. 9B",21 fold
same,fold increase in EC50 (RPV resistance) vs WT HIV-1NL4-BAL,"[9]; Y181V, TZM-bl cells, Fig. 1A",27 fold
same,reduced susceptibility to RPV of virus encoding Y181V,[9]; discussion,> 20 fold
same,RPV resistance of Y181V HIV-1,[9]; in the viruses used for this study (abstract),30 fold
same,EC50,[10],0.21 ± 0.003 nM
same,resistance conferred by E138K,[11],2 fold
same,protein-adjusted 90% effective concentration (EC90),[12],0.012 µg/mL and 0.0121 µg/mL
same,EC90,[12]; read-out: protein-adjusted EC90,33 nM
same,inhibition of simian immunodeficiency virus (SIV),[13],does not inhibit
same,resistance conferred by Y181V,[14],approximately 20 fold
same,resistance conferred by Y181C,[3],3 fold
same,fold increase in EC50 (RPV resistance) vs WT HIV-1NL4-BAL,[15],23 fold
